For 22 compounds, Ki results are on record in ChEMBL document CHEMBL2034919 (Eur J Med Chem, 2012).

In experiment [1] the target is 5-hydroxytryptamine receptor 7 (Homo sapiens, UniProt P34969).
Description: Displacement of [3H]LSD from human 5HT7 receptor by liquid scintillation counting
In experiment [2] the target is Sodium-dependent serotonin transporter (Homo sapiens, UniProt P31645).
Description: Displacement of [3H]Citalopram from human SERT by liquid scintillation counting
The target in experiment [3] is T1, 5-hydroxytryptamine receptor 2C (Homo sapiens, UniProt P28335).
T1 sequence (P28335 whole entry): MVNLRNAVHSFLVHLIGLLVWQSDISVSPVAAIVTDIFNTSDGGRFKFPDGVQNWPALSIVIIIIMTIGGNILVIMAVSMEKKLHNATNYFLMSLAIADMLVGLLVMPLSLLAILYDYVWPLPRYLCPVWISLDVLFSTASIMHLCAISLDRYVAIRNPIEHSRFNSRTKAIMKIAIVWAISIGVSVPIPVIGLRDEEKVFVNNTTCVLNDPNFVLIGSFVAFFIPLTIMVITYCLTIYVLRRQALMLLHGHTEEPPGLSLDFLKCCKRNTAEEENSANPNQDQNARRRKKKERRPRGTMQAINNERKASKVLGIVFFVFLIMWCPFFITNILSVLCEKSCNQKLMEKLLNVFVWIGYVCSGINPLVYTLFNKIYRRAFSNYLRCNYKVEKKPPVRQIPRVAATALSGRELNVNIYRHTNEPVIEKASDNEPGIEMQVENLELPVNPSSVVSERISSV
Description: (§1) Binding affinity to human 5HT2C receptor by radioligand displacement assay

For experiment [4], the target named is D(2) dopamine receptor (Homo sapiens, UniProt P14416).
Chain of D(2) dopamine receptor (P14416 whole entry): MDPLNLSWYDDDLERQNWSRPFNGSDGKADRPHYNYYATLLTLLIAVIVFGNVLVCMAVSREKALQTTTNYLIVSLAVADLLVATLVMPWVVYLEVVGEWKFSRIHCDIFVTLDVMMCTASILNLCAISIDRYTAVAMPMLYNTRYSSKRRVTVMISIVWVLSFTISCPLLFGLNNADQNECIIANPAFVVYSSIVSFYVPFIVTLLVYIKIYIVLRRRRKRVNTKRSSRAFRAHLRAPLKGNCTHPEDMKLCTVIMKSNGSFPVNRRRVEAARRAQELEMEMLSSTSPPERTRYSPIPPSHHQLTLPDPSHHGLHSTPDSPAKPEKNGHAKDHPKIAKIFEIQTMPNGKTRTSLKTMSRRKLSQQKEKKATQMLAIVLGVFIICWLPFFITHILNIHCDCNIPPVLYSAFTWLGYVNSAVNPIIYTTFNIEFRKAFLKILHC
Description: Displacement of [3H]N-methylspiperone from human dopamine D2 receptor by liquid scintillation counting
Experiment [5] addresses T2, 5-hydroxytryptamine receptor 1A (Homo sapiens, UniProt P08908).
T2 sequence (P08908 whole entry): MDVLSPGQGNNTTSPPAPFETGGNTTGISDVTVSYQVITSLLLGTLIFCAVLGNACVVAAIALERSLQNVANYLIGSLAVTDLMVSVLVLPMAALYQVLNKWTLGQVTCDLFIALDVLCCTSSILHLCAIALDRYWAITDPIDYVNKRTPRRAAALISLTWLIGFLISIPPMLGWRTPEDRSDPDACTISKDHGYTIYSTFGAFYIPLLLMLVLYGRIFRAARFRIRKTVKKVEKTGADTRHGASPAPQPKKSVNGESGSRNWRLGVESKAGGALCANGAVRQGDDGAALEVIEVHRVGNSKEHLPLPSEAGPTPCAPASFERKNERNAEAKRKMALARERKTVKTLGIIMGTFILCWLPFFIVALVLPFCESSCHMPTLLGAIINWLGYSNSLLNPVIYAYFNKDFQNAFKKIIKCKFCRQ
Description: Displacement of [3H]8-OH-DPAT from human 5HT1A receptor by liquid scintillation counting

Experiment [6] deals with 5-hydroxytryptamine receptor 2A (Homo sapiens, UniProt P28223).
Chain of 5-hydroxytryptamine receptor 2A (P28223 whole entry): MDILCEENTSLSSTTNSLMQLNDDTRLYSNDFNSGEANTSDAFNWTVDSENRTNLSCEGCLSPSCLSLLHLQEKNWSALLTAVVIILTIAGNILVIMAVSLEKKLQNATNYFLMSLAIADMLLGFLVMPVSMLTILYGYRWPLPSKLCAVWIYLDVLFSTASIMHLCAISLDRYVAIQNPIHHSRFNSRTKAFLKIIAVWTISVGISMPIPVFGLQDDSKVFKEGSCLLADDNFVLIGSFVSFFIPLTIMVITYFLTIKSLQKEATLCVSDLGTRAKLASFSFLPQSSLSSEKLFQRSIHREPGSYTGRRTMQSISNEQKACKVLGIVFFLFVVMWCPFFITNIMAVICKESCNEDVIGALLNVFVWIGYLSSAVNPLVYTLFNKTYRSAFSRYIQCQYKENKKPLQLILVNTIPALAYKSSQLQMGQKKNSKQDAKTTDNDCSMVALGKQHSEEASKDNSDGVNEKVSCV
Description: Displacement of [3H]Ketanserin from human 5HT2A receptor by liquid scintillation counting
Experiment [7] has as its target T3, D(4) dopamine receptor (Rattus norvegicus, UniProt P30729).
T3 sequence (P30729 whole entry): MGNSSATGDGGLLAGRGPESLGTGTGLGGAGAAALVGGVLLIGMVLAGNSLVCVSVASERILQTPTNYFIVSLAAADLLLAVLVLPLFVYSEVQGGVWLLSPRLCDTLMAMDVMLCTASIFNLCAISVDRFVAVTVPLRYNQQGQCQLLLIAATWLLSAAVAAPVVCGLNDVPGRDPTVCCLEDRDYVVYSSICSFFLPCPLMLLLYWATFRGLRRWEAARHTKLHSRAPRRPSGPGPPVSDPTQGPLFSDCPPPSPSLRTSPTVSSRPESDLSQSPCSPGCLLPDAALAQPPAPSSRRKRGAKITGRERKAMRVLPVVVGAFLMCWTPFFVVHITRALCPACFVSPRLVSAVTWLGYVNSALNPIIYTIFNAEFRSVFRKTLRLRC
Description: Displacement of [3H]N-methylspiperone from rat dopamine D4 receptor by liquid scintillation counting

Experiment [8] concerns the target T1, 5-hydroxytryptamine receptor 2C. This is another data set of the same source.
Description: as §1
Experiment [9] concerns the target Sodium-dependent noradrenaline transporter (Homo sapiens, UniProt P23975).
Description: Displacement of [3H]Nisoxetine from human NET by liquid scintillation assay
Experiment [10] has as its target Sodium-dependent dopamine transporter (Homo sapiens, UniProt Q01959).
Description: Displacement of [3H]GBR12935 from human DAT by liquid scintillation assay
Experiment [11] has as its target Histamine H1 receptor (Homo sapiens, UniProt P35367).
Description: Displacement of [3H]Pyrilamine from human H1 histamine receptor by liquid scintillation assay

Chain of 5-hydroxytryptamine receptor 7 (P34969 whole entry): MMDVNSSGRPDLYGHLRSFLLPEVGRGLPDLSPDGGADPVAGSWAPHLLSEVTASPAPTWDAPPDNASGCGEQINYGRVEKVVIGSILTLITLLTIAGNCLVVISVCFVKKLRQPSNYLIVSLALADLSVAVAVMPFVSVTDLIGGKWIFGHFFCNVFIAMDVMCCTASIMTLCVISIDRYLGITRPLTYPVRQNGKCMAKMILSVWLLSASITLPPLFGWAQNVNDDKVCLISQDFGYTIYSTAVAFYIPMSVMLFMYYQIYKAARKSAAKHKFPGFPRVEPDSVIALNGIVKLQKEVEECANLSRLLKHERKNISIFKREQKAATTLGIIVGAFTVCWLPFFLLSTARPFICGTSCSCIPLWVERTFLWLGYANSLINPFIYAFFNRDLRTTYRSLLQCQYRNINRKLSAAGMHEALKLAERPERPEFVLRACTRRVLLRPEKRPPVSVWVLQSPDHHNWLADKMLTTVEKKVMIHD
Chain of Sodium-dependent serotonin transporter (P31645 whole entry): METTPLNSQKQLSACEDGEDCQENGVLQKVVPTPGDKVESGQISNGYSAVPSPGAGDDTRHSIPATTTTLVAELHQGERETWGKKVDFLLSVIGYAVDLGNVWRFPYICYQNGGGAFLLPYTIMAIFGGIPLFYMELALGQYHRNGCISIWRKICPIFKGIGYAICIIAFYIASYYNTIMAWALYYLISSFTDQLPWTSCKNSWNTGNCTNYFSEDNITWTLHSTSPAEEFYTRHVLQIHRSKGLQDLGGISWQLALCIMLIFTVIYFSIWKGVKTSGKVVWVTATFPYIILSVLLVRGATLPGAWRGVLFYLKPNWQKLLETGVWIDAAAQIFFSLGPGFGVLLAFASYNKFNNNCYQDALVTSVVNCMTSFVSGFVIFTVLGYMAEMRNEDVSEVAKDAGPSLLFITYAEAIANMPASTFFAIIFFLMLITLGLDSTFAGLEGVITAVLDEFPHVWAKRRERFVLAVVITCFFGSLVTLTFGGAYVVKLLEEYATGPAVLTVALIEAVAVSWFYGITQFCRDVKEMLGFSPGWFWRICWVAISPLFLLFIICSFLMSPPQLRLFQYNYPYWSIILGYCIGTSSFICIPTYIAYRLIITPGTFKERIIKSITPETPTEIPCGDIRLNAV
Chain of Sodium-dependent noradrenaline transporter (P23975 whole entry): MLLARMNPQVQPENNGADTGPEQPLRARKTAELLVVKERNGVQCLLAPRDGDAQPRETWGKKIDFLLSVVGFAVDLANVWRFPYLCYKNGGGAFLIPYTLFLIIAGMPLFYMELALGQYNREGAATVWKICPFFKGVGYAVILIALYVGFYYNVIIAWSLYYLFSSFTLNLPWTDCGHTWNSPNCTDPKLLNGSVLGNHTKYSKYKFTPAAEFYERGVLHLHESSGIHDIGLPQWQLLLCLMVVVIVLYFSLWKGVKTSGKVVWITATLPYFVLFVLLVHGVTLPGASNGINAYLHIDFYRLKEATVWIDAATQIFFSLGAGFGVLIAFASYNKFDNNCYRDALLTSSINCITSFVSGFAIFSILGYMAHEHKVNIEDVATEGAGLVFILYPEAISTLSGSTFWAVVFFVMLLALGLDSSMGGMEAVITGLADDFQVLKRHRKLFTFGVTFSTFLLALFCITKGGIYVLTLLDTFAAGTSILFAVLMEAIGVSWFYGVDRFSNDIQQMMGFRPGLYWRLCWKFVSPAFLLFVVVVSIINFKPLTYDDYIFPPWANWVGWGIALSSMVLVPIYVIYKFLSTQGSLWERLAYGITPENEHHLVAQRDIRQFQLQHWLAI
Chain of Histamine H1 receptor (P35367 whole entry): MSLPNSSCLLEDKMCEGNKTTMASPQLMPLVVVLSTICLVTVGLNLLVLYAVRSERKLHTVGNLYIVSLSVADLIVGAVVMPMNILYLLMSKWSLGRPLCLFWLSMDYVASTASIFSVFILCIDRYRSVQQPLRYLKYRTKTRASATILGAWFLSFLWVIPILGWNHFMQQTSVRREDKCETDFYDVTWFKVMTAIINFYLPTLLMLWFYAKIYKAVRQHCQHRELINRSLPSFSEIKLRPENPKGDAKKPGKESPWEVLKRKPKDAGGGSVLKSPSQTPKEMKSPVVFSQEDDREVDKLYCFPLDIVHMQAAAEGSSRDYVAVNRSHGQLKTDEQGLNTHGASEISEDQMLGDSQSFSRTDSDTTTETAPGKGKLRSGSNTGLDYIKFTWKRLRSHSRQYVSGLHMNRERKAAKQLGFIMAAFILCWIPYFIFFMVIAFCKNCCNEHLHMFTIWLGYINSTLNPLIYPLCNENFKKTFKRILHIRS
Chain of Sodium-dependent dopamine transporter (Q01959 whole entry): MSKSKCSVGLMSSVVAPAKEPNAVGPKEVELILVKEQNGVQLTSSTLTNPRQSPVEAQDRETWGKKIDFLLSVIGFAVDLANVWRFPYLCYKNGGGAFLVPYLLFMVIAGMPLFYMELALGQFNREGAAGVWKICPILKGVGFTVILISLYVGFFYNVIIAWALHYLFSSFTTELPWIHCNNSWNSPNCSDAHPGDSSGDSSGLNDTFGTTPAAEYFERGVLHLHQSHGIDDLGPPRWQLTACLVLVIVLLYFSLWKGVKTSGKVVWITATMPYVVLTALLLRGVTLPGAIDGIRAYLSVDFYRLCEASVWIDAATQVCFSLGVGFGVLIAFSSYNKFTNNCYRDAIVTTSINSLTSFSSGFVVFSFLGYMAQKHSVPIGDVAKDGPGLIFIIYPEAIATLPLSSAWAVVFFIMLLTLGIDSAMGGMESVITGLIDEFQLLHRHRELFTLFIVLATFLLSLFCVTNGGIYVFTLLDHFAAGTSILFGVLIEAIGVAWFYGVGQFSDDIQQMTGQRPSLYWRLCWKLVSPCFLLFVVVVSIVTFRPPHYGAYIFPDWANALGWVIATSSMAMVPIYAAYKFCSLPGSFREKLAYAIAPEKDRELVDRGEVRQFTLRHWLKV

Take `Clc1ccc(N2CCCN(CCCCc3nc4ccccc4s3)CC2)cc1`: the results for the Ki in experiment [1] (read-out: Ki) and in experiment [2] (read-out: Ki) were 413 nM and 65 nM, respectively.

Regarding `Clc1ccc(N2CCCN(CCCc3nc4ccccc4s3)CC2)cc1`, the Ki result in experiment [3] was “Not Active”; in experiment [1] (read-out: Ki), 2060 nM; in [2] (read-out: Ki), 34 nM.

On to `O=C(CCCCN1CCCN(c2ccc(Cl)cc2)CC1)c1nc2ccccc2s1`, for which the Ki was 2810 nM in experiment [1] (read-out: Ki) and 65 nM in [2] (read-out: Ki).

Turning to `O=C(CCCN1CCCN(c2ccc(Cl)cc2)CC1)c1nc2ccccc2s1`, the Ki amounted to 356 nM in [1] (read-out: Ki) and 5.3 nM in experiment [2] (read-out: Ki).

With `Clc1ccc(N2CCN(CCCc3nc4ccccc4s3)CC2)cc1`, the Ki in [4] worked out at 2320 nM; in experiment [1] (read-out: Ki) it was 790 nM; in experiment [5], 312 nM; in experiment [6] it was 36 nM; in [2] (read-out: Ki), 1180 nM; in experiment [7] (read-out: Ki) it was 31 nM. Moreover, the Ki in experiment [8] is 4650 nM.

As to `Clc1ccc(N2CCN(CCCCc3nc4ccccc4s3)CC2)cc1`, the Ki in experiment [4] amounted to 219 nM; in experiment [1] (read-out: Ki), 329 nM; in experiment [5] it was 90.5 nM; in experiment [6], 132 nM; in experiment [2] (read-out: Ki) it was 166 nM; in [7] (read-out: Ki) it was 4 nM. In [8], this compound registered a Ki of 6210 nM.

For the compound `OC1(c2ccc(Cl)cc2)CCN(CCCCc2nc3ccccc3s2)CC1`, the Ki result in [3] was “Not Active”; in experiment [4], 201 nM; in [1] (read-out: Ki), 983 nM; in experiment [5], 771 nM; in experiment [6], 4260 nM; in experiment [2] (read-out: Ki), 922 nM. Besides, in experiment [7] (read-out: Ki), the Ki came out at 140 nM.

Take `O=C(CCCN1CCC(c2ccccc2)CC1)c1nc2ccccc2s1`: the Ki result in [3] is “Not Active”; in [4], 530 nM; in experiment [5], 85 nM; in [7] (read-out: Ki) it was 44.4 nM.

On to `O=C(CCCN1CCN(c2ncccn2)CC1)c1nc2ccccc2s1`, for which the inhibitory constant (Ki) result in experiment [3] is “Not Active”; in experiment [5], 63 nM; in experiment [2], “Not Active”; in [7] (read-out: Ki) it was 51.5 nM.

Turning to `O=C(CCCCN1CCC(n2c(=O)[nH]c3cc(Cl)ccc32)CC1)c1nc2ccccc2s1`, the Ki entry in experiment [3] is “Not Active”; in [4] it was 217 nM; in experiment [5], 252 nM; in [6], 1560 nM; in experiment [2] (read-out: Ki), 565 nM; in experiment [7] (read-out: Ki), 1710 nM.

As for `c1cnc(N2CCN(CCCCc3nc4ccccc4s3)CC2)nc1`, the Ki in experiment [1] (read-out: Ki) was 229 nM; in [6], 224 nM; in experiment [2], “Not Active”; in experiment [7] (read-out: Ki), 0.8 nM; in [8], greater than 10000 nM.

Turning to `c1ccc2c(c1)CCN(CCCCc1nc3ccccc3s1)C2`, the Ki in [4] stood at 30.8 nM; in [1] (read-out: Ki), 35.6 nM; in experiment [5], 5.1 nM; in experiment [6], 3810 nM; in experiment [2] (read-out: Ki), 1320 nM; in experiment [7] (read-out: Ki), 65.5 nM. In experiment [8], this compound had a Ki of 6270 nM.

With `c1ccc2c(c1)CN(CCCCc1nc3ccccc3s1)C2`, the Ki result was “Not Active” in experiment [3]; 990 nM in experiment [4]; 211 nM in [1] (read-out: Ki); 111 nM in [5]; greater than 10000 nM in experiment [6]; 186 nM in [2] (read-out: Ki). Also, the Ki in experiment [7] (read-out: Ki) is 141 nM.

On to `O=C(CCCN1CCN(c2ccc(Cl)cc2)CC1)c1nc2ccccc2s1`, for which the Ki result was “Not Active” in experiment [3]; 8360 nM in experiment [4]; “Not Active” in [1]; greater than 10000 nM in experiment [5]; 2000 nM in [6]; 491 nM in [2] (read-out: Ki). Further, the Ki in experiment [7] (read-out: Ki) turned out to be 342 nM.

For `O=C(CCCN1CCN(c2ccccc2)CC1)c1nc2ccccc2s1`, the Ki entry in experiment [3] was “Not Active”; in experiment [4], greater than 10000 nM; in experiment [1], “Not Active”; in experiment [5], 350 nM; in experiment [6], greater than 10000 nM; in experiment [2] (read-out: Ki), greater than 10000 nM. In addition, the Ki result in experiment [7] is listed as “Not Active”.

Take `O=C(CCCCN1CCC2(CC1)C(=O)NCN2c1ccccc1)c1nc2ccccc2s1`: the Ki entry in experiment [3] is “Not Active”; in experiment [1] (read-out: Ki), 518 nM; in experiment [5], 103 nM; in experiment [6] it was 3720 nM; in [2] (read-out: Ki) it was 284 nM; in experiment [7] (read-out: Ki), 162 nM.

With `O=C(CCCCN1Cc2ccccc2C1)c1nc2ccccc2s1`, the Ki entry in [3] was “Not Active”; in [6] it was greater than 10000 nM; in experiment [7] (read-out: Ki), 512 nM.

Regarding `O=C(CCCCN1CCN(c2ccc(Cl)cc2)CC1)c1nc2ccccc2s1`, the Ki result was “Not Active” in [3]; greater than 10000 nM in experiment [9]; 4740 nM in [10]; 4790 nM in experiment [4]; 2920 nM in [1] (read-out: Ki); 46 nM in [11]. Besides, the Ki in experiment [5] was 28.3 nM; in experiment [6] it was 523 nM; in experiment [2] (read-out: Ki), 81 nM; in experiment [7] (read-out: Ki), 100 nM.

Turning to `O=C(CCCCN1CCN(c2ncccn2)CC1)c1nc2ccccc2s1`, the figures for the inhibition constant (Ki) entry in experiment [3], in experiment [5] and in experiment [2] were “Not Active”, 3.6 nM and “Not Active”, respectively.

For the compound `O=C(CCCCN1CCN(c2ccccc2)CC1)c1nc2ccccc2s1`, the Ki worked out at 3.6 nM in [5] and 105 nM in experiment [7] (read-out: Ki).

On to `O=C(CCCCN1CCC(c2ccccc2)CC1)c1nc2ccccc2s1`, for which the Ki in [9] was determined as 49 nM; in [4] it was 642 nM; in experiment [1] (read-out: Ki), 107 nM; in [11] it was 52 nM; in experiment [5], 7.3 nM; in experiment [6], 3.4 nM. Besides, the Ki in experiment [2] (read-out: Ki) came out at 64 nM; in experiment [7] (read-out: Ki), 180 nM; in [8], 3740 nM.

As to `N#Cc1ccc2[nH]cc(CCCCN3CCN(c4ccc5oc(C(N)=O)cc5c4)CC3)c2c1` [VILAZODONE], the Ki in experiment [4] was 666 nM.

As a reminder, the Ki is the dissociation constant of the complex between target and ligand, obtained from inhibition or displacement.
